Source: BindingDB's records for doi:10.7270/Q2M32T6M (Vanderbilt Screening Center for GPCRs, Ion Channels and …, 2009)

Molecular target: T1, Solute carrier family 12 member 5 (Homo sapiens, UniProt Q9H2X9)
T1 sequence (Q9H2X9 whole entry): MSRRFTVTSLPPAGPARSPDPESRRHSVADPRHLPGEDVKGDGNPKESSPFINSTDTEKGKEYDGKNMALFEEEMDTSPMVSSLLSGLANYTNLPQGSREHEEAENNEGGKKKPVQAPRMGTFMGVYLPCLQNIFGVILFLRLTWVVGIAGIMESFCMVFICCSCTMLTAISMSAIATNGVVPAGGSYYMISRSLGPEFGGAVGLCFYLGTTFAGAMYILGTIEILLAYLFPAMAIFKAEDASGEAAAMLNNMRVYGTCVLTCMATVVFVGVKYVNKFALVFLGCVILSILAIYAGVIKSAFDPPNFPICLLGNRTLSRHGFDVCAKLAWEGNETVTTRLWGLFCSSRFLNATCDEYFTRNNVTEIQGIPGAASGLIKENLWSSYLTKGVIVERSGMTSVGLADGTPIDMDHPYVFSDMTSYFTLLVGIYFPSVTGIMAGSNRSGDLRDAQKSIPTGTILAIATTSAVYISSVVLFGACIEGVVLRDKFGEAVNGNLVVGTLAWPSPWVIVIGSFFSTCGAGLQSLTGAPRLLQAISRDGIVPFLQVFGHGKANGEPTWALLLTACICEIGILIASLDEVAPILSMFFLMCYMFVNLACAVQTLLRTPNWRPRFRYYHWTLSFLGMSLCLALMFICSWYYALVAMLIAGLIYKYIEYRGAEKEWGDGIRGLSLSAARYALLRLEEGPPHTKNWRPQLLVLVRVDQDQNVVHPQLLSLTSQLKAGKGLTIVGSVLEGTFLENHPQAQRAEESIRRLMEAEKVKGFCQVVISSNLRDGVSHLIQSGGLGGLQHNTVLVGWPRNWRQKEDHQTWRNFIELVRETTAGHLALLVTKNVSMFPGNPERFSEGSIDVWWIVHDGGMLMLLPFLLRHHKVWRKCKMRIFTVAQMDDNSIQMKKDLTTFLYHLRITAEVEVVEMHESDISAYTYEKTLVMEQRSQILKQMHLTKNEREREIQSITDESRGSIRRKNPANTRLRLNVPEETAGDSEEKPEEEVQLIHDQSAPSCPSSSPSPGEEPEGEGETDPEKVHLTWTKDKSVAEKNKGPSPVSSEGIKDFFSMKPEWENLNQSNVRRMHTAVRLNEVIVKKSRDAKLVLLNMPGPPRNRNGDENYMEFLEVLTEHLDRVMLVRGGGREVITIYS
Assay: KCC2 modulator potency by thallium flux, dose response, cell-based, HEK293 KCC2, FluoZin-2 fluorescence (AID 1736)
Settings: not given

EC50 | Structure (SMILES)
0.00466 µM | CCCn1c(N)c(C(=O)CSc2nnc(Cc3ccccc3)o2)c(=O)n(C)c1=O [6-amino-3-methyl-5-[1-oxo-2-[[5-(phenylmethyl)-1,3,4-oxadiazol-2-yl]thio]ethyl]-1-propylpyrimidine-2,4-dione]
6.91 µM | Cc1ccc2c(c1)nnn2C1CCN(S(=O)(=O)c2cccc(S(=O)(=O)N(C)C)c2)CC1 [MLS000033642]
8.6 µM | Cn1cc(C(=O)C(=O)N2CCCc3ccccc32)c2ccccc21 [1-(3,4-dihydro-2H-quinolin-1-yl)-2-(1-methyl-3-indolyl)ethane-1,2-dione]
0.498 µM | CS/C(=N\Cc1ccc(F)cc1)NS(=O)(=O)c1cccs1 [3-(4-fluorobenzyl)-2-methyl-1-(2-thienylsulfonyl)isothiourea]
12.7 µM | Oc1c(Br)cc(Br)cc1C=NNC(=S)N[C@H]1CC2C=CC1C2 (stereo partly specified) [SMR000455893]
41100 µM | O=C(NCc1cccs1)c1nc2c(nnn2Cc2ccc(F)cc2)c(=O)[nH]1 [MLS000074753]
2.06 µM | O=[N+]([O-])c1ccc(CSc2nnc(SCc3ccccc3)s2)cc1 [2-(benzylthio)-5-[(4-nitrobenzyl)thio]-1,3,4-thiadiazole]
4.66 µM | Cc1nc(SCc2ccc(F)cc2)c([N+](=O)[O-])[nH]1 [SMR000271028]
11.9 µM | N#CC1=C(SCc2ccccc2)N=C(N)C(C#N)C12CCCCC2 (stereo unspecified) [2-azanyl-4-(phenylmethylsulfanyl)-3-azaspiro[5.5]undeca-1,4-diene-1,5-dicarbonitrile]
1.48 µM | O=C(Cn1cnc2c(nnn2Cc2ccc(F)cc2)c1=O)NCc1ccc2c(c1)OCO2 [2-[3-(4-fluorobenzyl)-7-keto-triazolo[4,5-d]pyrimidin-6-yl]-N-piperonyl-acetamide]
38.2 µM | NC1=NC[C@@H](Cc2ccc(O)cc2)N1CCc1cc(C(F)(F)F)cc(C(F)(F)F)c1
3.27 µM | COCCNS(=O)(=O)c1ccc(-c2ccc(Cl)cc2)cc1 [4'-chloro-N-(2-methoxyethyl)-4-biphenylsulfonamide]
0.409 µM | O=C(O)/C=C/c1cn(Cc2ccccc2Cl)nc1-c1ccccc1 [(E)-3-[1-(2-chlorobenzyl)-3-phenyl-pyrazol-4-yl]acrylic acid]
5.46 µM | Cc1[nH]c2ccccc2c1SCC(=O)N1CCN(c2ccccc2)CC1 [2-[(2-methyl-1H-indol-3-yl)thio]-1-(4-phenyl-1-piperazinyl)ethanone]
1.31 µM | Sc1nnc(C2(c3ccccc3)CCCC2)o1 [5-(1-phenylcyclopentyl)-3H-1,3,4-oxadiazole-2-thione]
5.74 µM | S=C(NCc1ccccc1Cl)Nc1ccccc1Cl [1-(2-chlorobenzyl)-3-(2-chlorophenyl)thiourea]
7.58 µM | Cc1ccc(-c2noc(CN3CCN(Cc4ccccc4)CC3)n2)cc1 [1-benzyl-4-{[3-(4-methylphenyl)-1,2,4-oxadiazol-5-yl]methyl}piperazine]
19.2 µM | CCOC(=O)c1cc2c(ccn2-c2ccc(F)cc2)n1CC(=O)NC(C)(C)C [4-[2-(tert-butylamino)-2-keto-ethyl]-1-(4-fluorophenyl)pyrrolo[3,2-b]pyrrole-5-carboxylic acid ethyl ester]
2.79 µM | CC(=NNC(=S)Nc1c(C)cccc1C)c1cc2ccccc2o1 [SMR000260555]
21.1 µM | Cc1ccc(/C=C2/Sc3ccccc3N(CC(=O)NCCCOC(C)C)C2=O)cc1 [2-[(2E)-2-[(4-methylphenyl)methylidene]-3-oxidanylidene-1,4-benzothiazin-4-yl]-N-(3-propan-2-yloxypropyl)ethanamide]
5.32 µM | O=C(CSc1nnc(-c2ccc(F)cc2)o1)N1CCN(C(=O)c2ccco2)CC1 [2-[5-(4-Fluoro-phenyl)-[1,3,4]oxadiazol-2-ylsulfanyl]-1-[4-(furan-2-carbonyl)-piperazin-1-yl]-ethanone]

EC50 | Structure (SMILES)
3.43 µM | COc1cccc(Nc2nnc(S)s2)c1 [5-(3-methoxyanilino)-3H-1,3,4-thiadiazole-2-thione]
16.7 µM | CC(C)(CN=C(S)NCCc1ccccc1)CN=C(S)NCCc1ccccc1 [1-[2,2-dimethyl-3-(2-phenylethylcarbamothioylamino)propyl]-3-(2-phenylethyl)thiourea]
65.1 µM | Cc1ccc(Cn2c(SCC(=O)Nc3cc(C)on3)nc3ccccc3c2=O)cc1 [2-[[4-keto-3-(4-methylbenzyl)quinazolin-2-yl]thio]-N-(5-methylisoxazol-3-yl)acetamide]
4.55 µM | Cc1ccc(NC(=O)CSc2ccc(-c3ccco3)nn2)cc1 [2-[6-(furan-2-yl)pyridazin-3-yl]sulfanyl-N-(4-methylphenyl)acetamide]
471 µM | Cc1c(C(=O)NCCSCc2ccc(F)cc2)cnn1-c1ccc(Cl)cc1 [1-(4-chlorophenyl)-N-[2-[(4-fluorobenzyl)thio]ethyl]-5-methyl-pyrazole-4-carboxamide]
2.22 µM | Cc1ccc(C2=CSC3=NNC4(CCCCC4)NN23)cc1 [SMR000306481]
12.2 µM | O=C(O)CC/C(=C\c1ccc(N2CCOCC2)c([N+](=O)[O-])c1)c1nc2ccccc2s1 [(E)-4-(1,3-benzothiazol-2-yl)-5-(4-morpholin-4-yl-3-nitro-phenyl)pent-4-enoic acid]
8.29 µM | S=C(NN=Cc1cccc2ccccc12)Nc1cccc(Cl)c1 [1-(3-chlorophenyl)-3-(1-naphthalenylmethylideneamino)thiourea]
2.3 µM | Cc1ccc(/C=C2\SC(=S)N(c3c(C)n(C)n(-c4ccccc4)c3=O)C2=O)cc1 [3-(1,5-dimethyl-3-oxo-2-phenyl-2,3-dihydro-1H-pyrazol-4-yl)-5-(4-methylbenzylidene)-2-thioxo-1,3-thiazolidin-4-one]
1.46 µM | CC(=NNC(=O)c1ccc(Cl)c(Cl)c1)c1ccc(Br)s1 [N-[1-(5-bromo-2-thiophenyl)ethylideneamino]-3,4-dichlorobenzamide]
42.6 µM | CC1CCN(C(=O)c2ccc(SCc3ccccc3F)c([N+](=O)[O-])c2)CC1 [1-{4-[(2-fluorobenzyl)thio]-3-nitrobenzoyl}-4-methylpiperidine]
1.42 µM | O=C(CSc1nnnn1-c1ccc(Cl)cc1)N1CCc2ccccc2C1 [2-[1-(4-chlorophenyl)tetrazol-5-yl]sulfanyl-1-(3,4-dihydro-1H-isoquinolin-2-yl)ethanone]
21 µM | CSCCC(=O)N1CCCC(CNC(=O)c2ccc(-c3ccccc3)cc2)C1 (stereo unspecified) [MLS000733867]
1.57 µM | Sc1nnc(CCc2ccc(Cl)cc2)o1 [5-[2-(4-chlorophenyl)ethyl]-1,3,4-oxadiazole-2-thiol]
4.98 µM | COc1ccc(S(=O)(=O)N2CCC(C(=O)N3CCc4ccccc4C3)CC2)cc1C [2-({1-[(4-methoxy-3-methylphenyl)sulfonyl]-4-piperidinyl}carbonyl)-1,2,3,4-tetrahydroisoquinoline]
9.6 µM | O=C(C1CCN(c2nnc(-n3cccc3)s2)CC1)N1CCc2ccccc2C1 [3,4-dihydro-1H-isoquinolin-2-yl-[1-(5-pyrrol-1-yl-1,3,4-thiadiazol-2-yl)-4-piperidyl]methanone]
72.4 µM | O=C(CCSCCc1ccccn1)Nc1ccc(Cc2ccncc2)cc1 [3-(2-pyridin-2-ylethylsulfanyl)-N-[4-(pyridin-4-ylmethyl)phenyl]propanamide]
3290 µM | Cc1nn(-c2ccc(F)cc2)c(C)c1NS(=O)(=O)c1ccc(Cl)cc1 [4-chloranyl-N-[1-(4-fluorophenyl)-3,5-dimethyl-pyrazol-4-yl]benzenesulfonamide]
26.5 µM | O=C(CSc1ncccc1-c1nc2ccccc2[nH]1)N1CCN(c2ccccc2F)CC1 [MLS000033700]
5.86 µM | CC(C)NC(=S)NNC1=c2cc(C(C)C)ccc2=NC1=O [SMR000242097]

Same assay, conditions: inactive by the depositor's call

EC50 | Structure (SMILES)
33.2 µM | Cc1nn(-c2ccccc2)c2sc(C(=O)N(Cc3ccco3)C(C)C(=O)NC(C)(C)C)cc12 (stereo unspecified) [3-Methyl-1-phenyl-1H-thieno[2,3-c]pyrazole-5-carboxylic acid (1-tert-butylcarbamoyl-ethyl)-furan-2-ylmethyl-amide]
38.3 µM | CCc1ccc(-c2nc(C[S+]([O-])CC(=O)NCc3cccnc3)c(C)o2)cc1 (stereo unspecified) [2-({[2-(4-ethylphenyl)-5-methyl-1,3-oxazol-4-yl]methyl}sulfinyl)-N-(pyridin-3-ylmethyl)acetamide]
1890 µM | O=C(CSC1=NCCS1)Nc1nc(-c2ccccc2)cs1 [2-(4,5-dihydro-1,3-thiazol-2-ylsulfanyl)-N-(4-phenyl-1,3-thiazol-2-yl)acetamide]
7.95 µM | Sc1ccc2ccccc2n1 [MLS001006012]

Structure (SMILES) | EC50
COc1ccc(-c2nnc(-c3ccc(OCC(C)C)cc3)o2)cc1 [2-(4-Isobutoxy-phenyl)-5-(4-methoxy-phenyl)-[1,3,4]oxadiazole] | 0.00127 µM
